{"source": "patent US20180334436A1", "about": "(VIIV HEALTHCARE UK LIMITED, priority 2015, published 2018)"}
{"test_system": "HIV", "assay": "MT4 assay (anti-HIV activity)", "format": "cell-based", "conditions": "Human immunodeficiency virus 1, 96 h, antiviral HIV activity in HTLV-1 transformed cell line MT-4; luciferase read 96 hours later; 10 point dose response", "description": "Antiviral HIV activity and cytotoxicity values for compounds of the invention from Table 1 were measured in parallel in the HTLV-1 transformed cell line MT-4 based on the method previously described (Hazen et al., 2007, In vitro antiviral activity of the novel, tyrosyl-based human immunodeficiency virus (HIV) type 1 protease inhibitor brecanavir (GW640385) in combination with other antiretrovirals and against a panel of protease inhibitor-resistant HIV (Hazen et al., “In vitro antiviral activity of the novel, tyrosyl-based human immunodeficiency virus (HIV) type 1 protease inhibitor brecanavir (GW640385) in combination with other antiretrovirals and against a panel of protease inhibitor-resistant HIV”, Antimicrob. Agents Chemother. 2007, 51: 3147-3154; and Pauwels et al., “Sensitive and rapid assay on MT-4 cells for the detection of antiviral compounds against the AIDS virus”, J. of Virological Methods 1987, 16: 171-185).\nLuciferase activity was measured 96 hours later by adding a cell titer glo (Promega, Madison, Wis.). Percent inhibition of cell protection data was plotted relative to no compound control. Under the same condition, cytotoxicity of the compounds was determined using cell titer Glo™ (Promega, Madison, Wis.). IC50s were determined from a 10 point dose response curve using 3-4-fold serial dilution for each compound, which spans a concentration range >1000 fold.\nThese values are plotted against the molar compound concentrations using the standard four parameter logistic equation:\ny=((Vmax*x̂n)/(K̂n+x̂n))+Y2\nY2=minimum y n=slope factor\nVmax=maximum y x=compound concentration [M]", "units": {"IC50": "nM"}}
{"smiles": "COc1ccc(C(=O)N2CCc3c(C)c([C@H](OC(C)(C)C)C(=O)O)c(-c4cc(F)c5c(c4C)CCCO5)c(C)c3C2)cc1C", "note": "(atropisomer, axis not shown) [Example 97, (S)-2-(tert-butoxy)-2-((R)-7-(8-fluoro-5-methylchroman-6-yl)-2-(4-methoxy-3-methylbenzoyl)-5,8-dimethyl-1,2,3,4-tetrahydroisoquinolin-6-yl)acetic Acid]", "IC50": 36}
{"smiles": "Cc1c(-c2c(C)c3c(c(C)c2[C@H](OC(C)(C)C)C(=O)O)CC(=O)N(c2cccc(F)c2)C3)cc(F)c2c1CCCO2", "note": "(atropisomer, axis not shown) [Example 103, (S)-2-(tert-Butoxy)-2-((R)-7-(8-fluoro-5-methylchroman-6-yl)-2-(3-fluorophenyl)-5,8-dimethyl-3-oxo-1,2,3,4-tetrahydroisoquinolin-6-yl)acetic Acid]", "IC50": 2}
{"smiles": "Cc1c(-c2c(C)c3c(c(C)c2[C@H](OC(C)(C)C)C(=O)O)CC(=O)N(C2CCCCC2)C3)cc(F)c2c1CCCO2", "note": "(atropisomer, axis not shown) [Example 104, (S)-2-(tert-butoxy)-2-((R)-2-cyclohexyl-7-(8-fluoro-5-methylchroman-6-yl)-5,8-dimethyl-3-oxo-1,2,3,4-tetrahydroisoquinolin-6-yl)acetic Acid]", "IC50": 2}
{"smiles": "Cc1c(-c2c(C)c3c(c(C)c2[C@H](OC(C)(C)C)C(=O)O)CC(=O)N(C2CCC(C)(C)CC2)C3)cc(F)c2c1CCCO2", "note": "(atropisomer, axis not shown) [Example 105, (S)-2-(tert-butoxy)-2-((R)-2-(4,4-dimethylcyclohexyl)-7-(8-fluoro-5-methylchroman-6-yl)-5,8-dimethyl-3-oxo-1,2,3,4-tetrahydroisoquinolin-6-yl)acetic Acid]", "IC50": 2}
{"smiles": "Cc1c(-c2c(C)c3c(c(C)c2[C@H](OC(C)(C)C)C(=O)O)CC(=O)N(CC2CCCCC2)C3)cc(F)c2c1CCCO2", "note": "(atropisomer, axis not shown) [Example 106, (S)-2-(tert-butoxy)-2-((R)-2-(cyclohexylmethyl)-7-(8-fluoro-5-methylchroman-6-yl)-5,8-dimethyl-3-oxo-1,2,3,4-tetrahydroisoquinolin-6-yl)acetic Acid]", "IC50": 3}
{"smiles": "COc1c(F)cccc1N1Cc2c(C)c(-c3cc(F)c4c(c3C)CCCO4)c([C@H](OC(C)(C)C)C(=O)O)c(C)c2CC1=O", "note": "(atropisomer, axis not shown) [Example 107, (S)-2-(tert-butoxy)-2-((R)-2-(3-fluoro-2-methoxyphenyl)-7-(8-fluoro-5-methylchroman-6-yl)-5,8-dimethyl-3-oxo-1,2,3,4-tetrahydroisoquinolin-6-yl)acetic Acid]", "IC50": 2}
{"smiles": "Cc1c(-c2c(C)c3c(c(C)c2[C@H](OC(C)(C)C)C(=O)O)CC(=O)N(C2CCOCC2)C3)cc(F)c2c1CCCO2", "note": "(atropisomer, axis not shown) [Example 108, (S)-2-(tert-butoxy)-2-((R)-7-(8-fluoro-5-methylchroman-6-yl)-5,8-dimethyl-3-oxo-2-(tetrahydro-2H-pyran-4-yl)-1,2,3,4-tetrahydroisoquinolin-6-yl)acetic Acid]", "IC50": 13}
{"smiles": "Cc1c(-c2c(C)c3c(c(C)c2[C@H](OC(C)(C)C)C(=O)O)C(C)(C)C(=O)N(C2CCCCC2)C3)cc(F)c2c1CCCO2", "note": "(atropisomer, axis not shown) [Example 109]", "IC50": 4}
{"smiles": "Cc1c(-c2c(C)c3c(c(C)c2[C@H](OC(C)(C)C)C(=O)O)CC(=O)N(CC(C)C)C3)cc(F)c2c1CCCO2", "note": "(atropisomer, axis not shown) [Example 110]", "IC50": 3}
{"smiles": "Cc1c(-c2c(C)c3c(c(C)c2[C@H](OC(C)(C)C)C(=O)O)CC(=O)N(C2CCN(C)CC2)C3)cc(F)c2c1CCCO2", "note": "(atropisomer, axis not shown) [Example 112, (S)-2-(tert-butoxy)-2-((R)-7-(8-fluoro-5-methylchroman-6-yl)-5,8-dimethyl-2-(1-methylpiperidin-4-yl)-3-oxo-1,2,3,4-tetrahydroisoquinolin-6-yl)acetic Acid]", "IC50": 1040}
{"smiles": "Cc1c(-c2c(C)c3c(c(C)c2[C@H](OC(C)(C)C)C(=O)O)CC(=O)N(CC2CCOCC2)C3)cc(F)c2c1CCCO2", "note": "(atropisomer, axis not shown) [Example 113]", "IC50": 14}
{"smiles": "Cc1c(-c2c(C)c3c(c(C)c2[C@H](OC(C)(C)C)C(=O)O)CC(=O)N(C2CCC(F)(F)CC2)C3)cc(F)c2c1CCCO2", "note": "(atropisomer, axis not shown) [Example 114, (S)-2-(tert-butoxy)-2-((R)-2-(4,4-difluorocyclohexyl)-7-(8-fluoro-5-methylchroman-6-yl)-5,8-dimethyl-3-oxo-1,2,3,4-tetrahydroisoquinolin-6-yl)acetic Acid]", "IC50": 3}
{"smiles": "Cc1c(-c2c(C)c3c(c(C)c2[C@H](OC(C)(C)C)C(=O)O)CC(=O)N(C2CCN(C(=O)OC(C)(C)C)CC2)C3)cc(F)c2c1CCCO2", "note": "(atropisomer, axis not shown) [Example 115]", "IC50": 116}
{"smiles": "Cc1c(-c2c(C)c3c(c(C)c2[C@H](OC(C)(C)C)C(=O)O)CC(=O)N(C2CCCCC2)C3)cc(Cl)c2c1CCCO2", "note": "(atropisomer, axis not shown) [Example 118]", "IC50": 4}
{"smiles": "Cc1c(-c2c(C)c3c(c(C)c2[C@H](OC(C)(C)C)C(=O)O)CC(=O)N(C2CCCCC2)C3)ccc2c1NCCO2", "note": "(atropisomer, axis not shown) [Example 119, (S)-2-(tert-butoxy)-2-((R)-2-cyclohexyl-5,8-dimethyl-7-(5-methyl-3,4-dihydro-2H-benzo[b][1,4]oxazin-6-yl)-3-oxo-1,2,3,4-tetrahydroisoquinolin-6-yl)acetic Acid]", "IC50": 8}
{"smiles": "Cc1c(-c2c(C)c3c(c(C)c2[C@H](OC(C)(C)C)C(=O)O)CC(=O)N(C2CCCCC2)C3)ccc2c1CCCO2", "note": "(atropisomer, axis not shown) [Example 120, (S)-2-(tert-butoxy)-2-((R)-2-cyclohexyl-5,8-dimethyl-7-(5-methylchroman-6-yl)-3-oxo-1,2,3,4-tetrahydroisoquinolin-6-yl)acetic Acid]", "IC50": 2}
{"smiles": "Cc1c(-c2c(C)c3c(c(C)c2[C@H](OC(C)(C)C)C(=O)O)CCN(C2CCCCC2)C3)cc(F)c2c1CCCO2", "note": "(atropisomer, axis not shown; (M)) [Example 67, (2S)(M)-2-(tert-butoxy)-2-(2-cyclohexyl-7-(8-fluoro-5-methylchroman-6-yl)-5,8-dimethyl-1,2,3,4-tetrahydroisoquinolin-6-yl)acetic Acid]", "IC50": 5}
{"smiles": "Cc1c(-c2c(C)c3c(c(C)c2[C@H](OC(C)(C)C)C(=O)O)CCN(S(=O)(=O)C2CCCCC2)C3)ccc2c1CCCO2", "note": "(atropisomer, axis not shown; (M)) [Example 83, (2S)(M)-2-(tert-butoxy)-2-(-2-(cyclohexylsulfonyl)-5,8-dimethyl-7-(5-methylchroman-6-yl)-1,2,3,4-tetrahydroisoquinolin-6-yl)acetic Acid]", "IC50": 46}
{"smiles": "Cc1c(-c2c(C)c3c(c(C)c2[C@H](OC(C)(C)C)C(=O)O)CCN(C2CCCCC2)C3)ccc2c1CCCO2", "note": "(atropisomer, axis not shown; (M)) [Example 84, (S)(M)-2-(tert-butoxy)-2-(2-cyclohexyl-5,8-dimethyl-7-(5-methylchroman-6-yl)-1,2,3,4-tetrahydroisoquinolin-6-yl)acetic Acid]", "IC50": 5}
{"smiles": "Cc1c(-c2c(C)c3c(c(C)c2[C@H](OC(C)(C)C)C(=O)O)CCN(S(=O)(=O)C2CCCCC2)C3)cc(Cl)c2c1CCCO2", "note": "(atropisomer, axis not shown; (M)) [Example 88, (S)(M)-2-(tert-butoxy)-2-(7-(8-chloro-5-methylchroman-6-yl)-2-(cyclohexylsulfonyl)-5,8-dimethyl-1,2,3,4-tetrahydroisoquinolin-6-yl)acetic Acid]", "IC50": 36}
{"smiles": "Cc1c(-c2c(C)c3c(c(C)c2[C@H](OC(C)(C)C)C(=O)O)CCN(C2CCCCC2)C3)cc(Cl)c2c1CCCO2", "note": "(atropisomer, axis not shown; (M)) [Example 89, (S)(M)-2-(tert-butoxy)-2-(7-(8-chloro-5-methylchroman-6-yl)-2-cyclohexyl-5,8-dimethyl-1,2,3,4-tetrahydroisoquinolin-6-yl)acetic Acid]", "IC50": 12}
{"smiles": "Cc1c(-c2c(C)c3c(c(C)c2[C@H](OC(C)(C)C)C(=O)O)CCN(S(=O)(=O)C2CCCCC2)C3)ccc2c1NCCO2", "note": "(atropisomer, axis not shown; (M)) [Example 95, (S)(M)-2-(tert-butoxy)-2-(2-(cyclohexylsulfonyl)-5,8-dimethyl-7-(5-methyl-3,4-dihydro-2H-benzo[b][1,4]oxazin-6-yl)-1,2,3,4-tetrahydroisoquinolin-6-yl)acetic Acid]", "IC50": 9}
{"smiles": "Cc1c(-c2c(C)c3c(c(C)c2[C@H](OC(C)(C)C)C(=O)O)CC(=O)N(Cc2ccccc2)C3)cc(F)c2c1CCCO2", "note": "(atropisomer, axis not shown; (M)) [Example 102, (S)(M)-2-(2-benzyl-7-(8-fluoro-5-methylchroman-6-yl)-5,8-dimethyl-3-oxo-1,2,3,4-tetrahydroisoquinolin-6-yl)-2-(tert-butoxy)acetic Acid]", "IC50": 3}
{"smiles": "Cc1ccc(-c2c(C)c3c(c(C)c2[C@H](OC(C)(C)C)C(=O)O)CCN(C2CCC[C@@H](C)C2)C3)cc1", "note": "(single isomer, unassigned) [Example 71]", "IC50": 14}
